Data set [1] is described as follows: Mass balance: excretion of radioactivity, copanlisib and metabolites in urine and feces. The conditions noted are these: 6 subjects; for Amount of dose recovered as this component in urine and feces combined: urine plus feces; for Amount excreted in feces as this component, arithmetic mean (range) / Amount excreted in urine as this component, arithmetic mean (range): HPLC with off-line radioactivity detection. The data set is classed as in vivo, human. Here is the method: After pooling and homogenization of urine and feces samples per time interval, aliquots were stored at −20 °C for total radioactivity determination and at −70°C for metabolic profiling (including blood/plasma samples). For determination of total radioactivity, samples were analyzed with a Perkin Elmer Tri-Carb™ 3100 TR liquid scintillation analyzer (Perkin Elmer, Waltham, MA, USA) with quenching correction. For metabolite profiling, plasma samples were treated with a mixture of acetonitrile (ACN) +0.2% acetic acid, after shaking and centrifugation, the supernatant was concentrated. Urine and feces samples were treated with solid-phase extraction (Waters HLB 30 mg, 1 mL, Waters, Milford, MA, USA) and liquid–liquid extraction (ACN + 0.2% trifluoroacetic acid/water, 80:20 volume/volume), respectively. Subsequently samples from plasma, urine and feces were analyzed by HPLC-LSC on Synergi Polar 4 µm 150 × 2 mm (Phenomenex, Aschaffenburg, Germany) with off-line radioactivity detection by Microbeta^2™ Plus liquid scintillation counter with Ultima Flo™ AP scintillation fluid (Packard Instrument BV, Groningen, The Netherlands).
Metabolite patterns in plasma, urine and feces were studied by the HPLC method with off-line radioactivity detection described above.
A similar approach has been described earlier.

The nature of data set [2]: clinical. The following applies: for Tmax: male, human, in vivo, iv, t max. On the procedure: All subjects gave written informed consent; the study was conducted at PRA Health Sciences (Zuidlaren, The Netherlands) in accordance with the Declaration of Helsinki and was approved by an accredited institutional ethics committee (Medisch Ethische Toetsings Commissie, Assen, The Netherlands).
Subjects remained fasting until 2-h after the end of the infusion. Volunteers stayed in-house until 14 days after the application and subsequently urine and feces were collected for 24-h on Day 16, 20, 27 and 34 if necessary, cf. below.
Urine was collected pre-dose, at 0–12-h and 12–24 h after the start of the infusion and thereafter over 24-h intervals on Day 2 to Day 14 as well as on Day 16, 20, 27 and 34 (±1 day). Cumulative 24-h fecal samples were collected from Day 1 (day of infusion) to Day 14 and as well as on Day 16, 20, 27 and 34 (±1 day). […] The excreted radioactivity between ambulant visits during the prolongation phase of the clinical study was calculated using interpolation to get a more realistic total excretion value of all subjects (see "Pharmacokinetic analysis").
All samples were frozen at −70 °C and analyzed within 60 days of sample collection.
For blood/plasma ratio determination, total radioactivity in urine and feces well as data from HPLC analysis data from radioactivity measurement by liquid scintillation counting (LSC) were considered. The amount of radioactivity recovered in the excreta (A E) was related to the administered radioactive dose to establish the radioactive balance. Arithmetic means and coefficients of variation (CV) were calculated for these percentages. […] Cumulative excretion was calculated as sum of the collection intervals. The elimination of the total radioactivity in urine and feces for time-points beyond day 14 was performed by log-linear extrapolation between analyzed time-points. Amounts of radioactivity excreted in urine and feces between two ambulant visits were calculated per interpolated day by linear interpolation of log-transformed excretion data separately per matrix (lnA E(interpolated day) = Δdays × [lnA E(Visit i + 1) − lnA E(Visit i)]/[day (Visit i + 1) − day (Visit i)] + lnA E(Visit i), with A E given as amount of radioactivity excreted in matrix per day and Δdays being the difference between the calculated day and the last available visit with A E > 0). In case no feces sample was provided on an ambulant visit, this visit was neglected for interpolation. A similar approach has been described earlier. The concentration/amount for each component of each sample/time-point was calculated by multiplying the total radioactivity concentration/amount of each sample with %-area of each component obtained after off-line HPLC separation. The amount of radioactivity in urine and feces at late time-points where no component was detected was distributed in the same percentage to the component (s) present at the time-point before.
Compartment-free analysis was performed employing WinNonlin software (version 5.3, Pharsight Certara, Princton, NJ, USA).
Pharmacokinetic parameters were evaluated by descriptive data analysis without formal hypothesis testing by calculating either medians (t max, t last) or geometric means and %CV (remaining parameters). Excretion data (urine, feces, total) were evaluated by arithmetic means.

In data set [3] the test system is clinical target (PI3K). On the set-up: method as in Bayer AG, data on file. The conditions noted are these: ref Bayer AG, data on file; cited from earlier work.

Turning to `COc1c(OCCCO)ccc2c1N=C(NC(=O)c1cnc(N)nc1)N1CCN=C21` [M15], in data set [1], the “Amount of dose recovered as this component in urine and feces combined” value (from here on “Amount of dose recovered”) is listed as < 2 % of dose.
In the case of `COc1c(O)ccc2c1N=C(NC(=O)c1cnc(N)nc1)N1CCN=C21` [M4], in data set [1], the “Amount excreted in feces as this component, arithmetic mean (range)” value (“Amount excreted in feces” for short) is 5.61 (1.74–9.53) % of dose and the “Amount excreted in urine as this component, arithmetic mean (range)” value (shortened to “Amount excreted in urine”) was 0.15 (0.04–0.32) % of dose.
As for `COc1c(OCCCN2CCOCC2=O)ccc2c1N=C(NC(=O)c1cnc(N)nc1)N1CCN=C21` [M1], in data set [2] (median), the Tmax turned out to be 6 h. The Tmax in data set [2] (range) is 3 to 10 h. Moreover, the “Range of AUC (0–t last) (LC–MS)” value in data set [2] (plasma, t last defined by the time-point with detectable radioactivity, range of 6 subjects) is given as 4.36–37.8 ng-Eq·h/mL. Also, the “Affinity to the clinical target relative to parent compound” value in data set [3] is recorded as “same order of magnitude as found for the parent compound”. For the same molecule, in data set [1], the “Amount excreted in feces” value is 6.39 (4.34–8.66) % of dose; the “Amount of dose recovered” value is reported as 11.1 % of dose; the “Amount excreted in urine” value is given as 4.47 (2.53–6.79) % of dose.
Turning to `COc1c(OCCC(=O)O)ccc2c1N=C(NC(=O)c1cnc(N)nc1)N1CCN=C21` [M2], in data set [1], the “Amount excreted in feces” value is recorded as 11.8 (9.91–13.0) % of dose and the “Amount excreted in urine” value is given as 0.34 (0.10–0.52) % of dose.
For `COc1c(OCCCNCCO)ccc2c1N=C(NC(=O)c1cnc(N)nc1)N1CCN=C21` [M3], in data set [1], the “Amount excreted in feces” value is 7.32 (5.61–11.6) % of dose and the “Amount excreted in urine” value was 0.32 (0–0.62) % of dose.
For the molecule `COc1c(OCCCN(C=O)CCO)ccc2c1N=C(NC(=O)c1cnc(N)nc1)N1CCN=C21` [M21], the “Amount of dose recovered” value in data set [1] is < 2 % of dose.
